From patent publication US20130064955A1, “NATURAL SWEETENED COMPOSITIONS AND METHODS FOR PREPARING THE SAME” (priority 2011, published 2013)
“Also recorded” adds a separate entry of the source.

What was measured:
human sense of taste [1] = test: Determination of sweetness recognition threshold concentration by trained taste tester; assay type: in vivo; settings: in water at room temperature; for minimal effective concentration: Homo sapiens, read-out: Sweetness recognition threshold Level
Description: The term “sweetness recognition threshold concentration,” as generally used herein, is the lowest known concentration of a sweet compound that is perceivable by the human sense of taste. The sweetness recognition threshold level is specific for a particular compound, and varies based on temperature, matrix, ingredients and/or flavor system. The sweetness recognition threshold concentrations measurements and 5% sucrose equivalence measurements described herein were determined in water at room temperature.
A sip (approximately 2-5 mL) of control sample, including but not limited to water, was tasted and swallowed by a trained taste tester. After allowing a 15-25 second interval to pass, a second sip of the control is tasted and swallowed. The taste properties of the control are determined and recorded by the trained taste tester. An unknown sample is then tasted and swallowed in the same manner, allowing a 15-25 second interval between the two sips. Preferably no more than ten additives are tested per day to avoid taste fatigue. Each sample was taken at least 1.5 hours following eating or drinking The sweetness recognition thresholds concentration of 21 steviol glycosides were determined in this manner, and are shown in Table 1.

human sense of taste [2] = test: Sugar-like taste quality enhancement of Stevia sweeteners by steviol glycoside additives, taste test by trained individual; assay type: in vivo; settings: for Taste change of Stevia Sweetener REBA (303 ppm) with Steviol Glycoside Additive / Taste change of Stevia Sweetener REBD (303 ppm) with Steviol Glycoside Additive / Taste change of Stevia Sweetener JSS (380 ppm) with Steviol Glycoside Additive: additive at or below its sweetness recognition threshold concentration, 5% sucrose equivalence, water, room temperature; for Taste change of Stevia Sweetener REBA (303 ppm) with Steviol Glycoside Additive: 97% pure rebaudioside A 303 ppm; for Taste change of Stevia Sweetener REBD (303 ppm) with Steviol Glycoside Additive: rebaudioside D 303 ppm; for sugar-like taste quality enhancement effect: mostly in 5% SE rebaudioside A, compared with compound 1;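 for Taste change of Stevia Sweetener JSS (380 ppm) with Steviol Glycoside Additive: code −B means less bitterness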
Description: A steviol glycoside is added in an amount at or below sweetness recognition threshold concentration to a solution of water and a Stevia sweetener. The solution is maintained at room temperature. Each sample is taste tested by a trained individual, as described in Example 1, in duplicate. Preferably no more than ten steviol glycosides are tested per day to avoid taste fatigue. Each sample was taken at least 1.5 hours following eating or drinking
The Stevia sweeteners used in this study were 97% pure rebaudioside A, JSS, and rebaudioside D.
The steviol glycosides were used in at or below sweetness recognition threshold concentrations. […]

[3] = additive at 500 ppm, all three control 5% SE Stevia sweeteners

C=C1C[C@@]23CC[C@H]4[C@@](C)(CCC[C@@]4(C)C(=O)O[C@@H]4O[C@H](CO)[C@@H](O)[C@H](O)[C@H]4O)[C@@H]2CC[C@]1(O[C@@H]1O[C@H](CO)[C@@H](O)[C@H](O)[C@H]1O[C@@H]1O[C@H](CO)[C@@H](O)[C@H](O)[C@H]1O)C3 [Stevioside, stevioside]
minimal effective concentration (human sense of taste [1]): 25 µg/mL
Taste change of Stevia Sweetener REBA (303 ppm) with Steviol Glycoside Additive (human sense of taste [2]): N (N: no difference in presence or absence of steviol glycoside additive;)
Taste change of Stevia Sweetener REBD (303 ppm) with Steviol Glycoside Additive (human sense of taste [2]): N (N: no difference in presence or absence of steviol glycoside additive;)

C=C1C[C@@]23CC[C@H]4[C@@](C)(CCC[C@@]4(C)C(=O)O[C@@H]4O[C@H](CO)[C@@H](O)[C@H](O)[C@H]4O)[C@@H]2CC[C@]1(O[C@@H]1O[C@H](CO)[C@@H](O)[C@H](O)[C@H]1O[C@@H]1O[C@@H](C)[C@H](O)[C@@H](O)[C@H]1O)C3 [Dulcoside A, dulcoside A]
Sweetness recognition threshold Level (human sense of taste [1]): 50 ppm
Taste change of Stevia Sweetener REBA (303 ppm) with Steviol Glycoside Additive (human sense of taste [2]): N (N: no difference in presence or absence of steviol glycoside additive;)
Taste change of Stevia Sweetener JSS (380 ppm) with Steviol Glycoside Additive (human sense of taste [2]): N (N: no difference in presence or absence of steviol glycoside additive;)
Taste change of Stevia Sweetener REBD (303 ppm) with Steviol Glycoside Additive (human sense of taste [2]): N (N: no difference in presence or absence of steviol glycoside additive;)

C=C1C[C@@]23CC[C@H]4[C@@](C)(CCC[C@@]4(C)C(=O)OC4OC(C(=O)O)C(O)C(O)C4O)[C@@H]2CC[C@]1(O)C3 (stereo partly shown) [Steviol glucuronide, steviol glucoronide]
minimal effective concentration (human sense of taste [1]): 85 µg/mL
bitterness (human sense of taste [2]; additive at 85 ppm, 5% SE JSS): less bitterness
Taste change of Stevia Sweetener REBA (303 ppm) with Steviol Glycoside Additive (human sense of taste [2]): N (N: no difference in presence or absence of steviol glycoside additive;)
Taste change of Stevia Sweetener JSS (380 ppm) with Steviol Glycoside Additive (human sense of taste [2]): −B
Taste change of Stevia Sweetener REBD (303 ppm) with Steviol Glycoside Additive (human sense of taste [2]): N (N: no difference in presence or absence of steviol glycoside additive;)

rebaudioside F
Sweetness recognition threshold Level (human sense of taste [1]): 25 ppm
Taste change of Stevia Sweetener REBA (303 ppm) with Steviol Glycoside Additive (human sense of taste [2]): N (N: no difference in presence or absence of steviol glycoside additive;)
Taste change of Stevia Sweetener JSS (380 ppm) with Steviol Glycoside Additive (human sense of taste [2]): N (N: no difference in presence or absence of steviol glycoside additive;)
Taste change of Stevia Sweetener REBD (303 ppm) with Steviol Glycoside Additive (human sense of taste [2]): N (N: no difference in presence or absence of steviol glycoside additive;)

C[C@H](CC[C@@H](O[C@@H]1O[C@H](CO[C@@H]2O[C@H](CO)[C@@H](O)[C@H](O)[C@H]2O)[C@@H](O)[C@H](O)[C@H]1O[C@@H]1O[C@H](CO)[C@@H](O)[C@H](O)[C@H]1O)C(C)(C)O)[C@H]1CC[C@@]2(C)[C@@H]3CC=C4[C@@H](CC[C@H](O[C@@H]5O[C@H](CO[C@@H]6O[C@H](CO)[C@@H](O)[C@H](O)[C@H]6O)[C@@H](O)[C@H](O)[C@H]5O)C4(C)C)[C@]3(C)[C@H](O)C[C@]12C [Mogroside V, mogroside V]
Sweetness recognition threshold Level (human sense of taste [1]): 20 ppm
Sweetness recognition threshold Level (human sense of taste [1]; listed as mogroside V): about 15 ppm
Taste change of Stevia Sweetener REBA (303 ppm) with Steviol Glycoside Additive (human sense of taste [2]): N (N: no difference in presence or absence of steviol glycoside additive;)
Taste change of Stevia Sweetener JSS (380 ppm) with Steviol Glycoside Additive (human sense of taste [2]): N (N: no difference in presence or absence of steviol glycoside additive;)
Taste change of Stevia Sweetener REBD (303 ppm) with Steviol Glycoside Additive (human sense of taste [2]): ~+S (~+S: Slightly more detected sweetness intensity (~0.5% Sucrose Equivalence);)

C[C@@]12CCC[C@@](C)(C(=O)O)[C@H]1CC[C@@]13C[C@@](OC4OC(CO)C(O)C(OC5OC(CO)C(O)C(O)C5O)C4OC4OC(CO)C(O)C(O)C4O)(CC[C@H]12)[C@](C)(O)C3 (stereo partly shown) [Compound 1]
minimal effective concentration (human sense of taste [1]): 500 µg/mL
bitterness, sweet lingering, off-taste note (human sense of taste [2]; [3]): no bitterness, sweet lingering or off-taste note
slightly sweeter profile (increase in sucrose equivalence) (human sense of taste [2]; [3]): ca. 1 % SE
sugar-like tasting quality enhancement (human sense of taste [2]; [3]): significantly enhanced all three control 5% SE Stevia sweeteners to a much superior sugar-like tasting quality
Taste change of Stevia Sweetener REBA (303 ppm) with Steviol Glycoside Additive (human sense of taste [2]): ++, ASLC,; also recorded: +S, −B
Taste change of Stevia Sweetener JSS (380 ppm) with Steviol Glycoside Additive (human sense of taste [2]): ++, ASLC,; also recorded: +S, −B
Taste change of Stevia Sweetener REBD (303 ppm) with Steviol Glycoside Additive (human sense of taste [2]): ++, ASLC,; also recorded: +S, −B

C[C@@]12CCC[C@@](C)(C(=O)OC3OC(CO)C(O)C(O)C3O)[C@H]1CC[C@@]13C[C@@](OC4OC(CO)C(O)C(OC5OC(CO)C(O)C(O)C5O)C4OC4OC(CO)C(O)C(O)C4O)(CC[C@H]12)[C@](C)(O)C3 (stereo partly shown) [Compound 3]
minimal effective concentration (human sense of taste [1]): 700 µg/mL
modulation of Stevia sweeteners (human sense of taste [2]; additive at 700 ppm, all Stevia sweeteners): positive modulation of all Stevia sweeteners
off-taste note (human sense of taste [2]; additive at 700 ppm, with Stevia sweeteners): weak chemical-like note
Taste change of Stevia Sweetener REBA (303 ppm) with Steviol Glycoside Additive (human sense of taste [2]): +, −B, −SL, OF
Taste change of Stevia Sweetener JSS (380 ppm) with Steviol Glycoside Additive (human sense of taste [2]): −B, OF
Taste change of Stevia Sweetener REBD (303 ppm) with Steviol Glycoside Additive (human sense of taste [2]): +, −SL, OF
sugar-like taste quality enhancement effect (human sense of taste [2]): similar, but smaller positive sugar-like taste quality enhancement effect

C[C@@]12CCC[C@@](C)(C(=O)OC3OC(CO)C(O)C(O)C3O)[C@H]1CC[C@]13C=C(CO)[C@](OC4OC(CO)C(O)C(OC5OC(CO)C(O)C(O)C5O)C4OC4OC(CO)C(O)C(O)C4O)(CC[C@H]12)C3 (stereo partly shown) [Compound 5]
minimal effective concentration (human sense of taste [1]): 250 µg/mL
sugar-like taste quality (human sense of taste [2]; additive at 250 ppm, rebaudioside A): improve the sugar-like taste quality of rebaudioside A
Taste change of Stevia Sweetener REBA (303 ppm) with Steviol Glycoside Additive (human sense of taste [2]): +, −B, W
Taste change of Stevia Sweetener JSS (380 ppm) with Steviol Glycoside Additive (human sense of taste [2]): N (N: no difference in presence or absence of steviol glycoside additive;)
Taste change of Stevia Sweetener REBD (303 ppm) with Steviol Glycoside Additive (human sense of taste [2]): N (N: no difference in presence or absence of steviol glycoside additive;)
sugar-like taste quality enhancement effect (human sense of taste [2]): similar, but smaller positive sugar-like taste quality enhancement effect

C=C1C[C@@]23CC[C@H]4[C@@](C)(CCC[C@@]4(C)C(=O)O)[C@@H]2CC[C@]1(O[C@@H]1O[C@H](CO)[C@@H](O)[C@H](O)[C@H]1O[C@@H]1O[C@H](CO)[C@@H](O)[C@H](O)[C@H]1O)C3 [Steviolbioside, steviolbioside]
Sweetness recognition threshold Level (human sense of taste [1]): 50 ppm
Taste change of Stevia Sweetener REBA (303 ppm) with Steviol Glycoside Additive (human sense of taste [2]): N (N: no difference in presence or absence of steviol glycoside additive;)
Taste change of Stevia Sweetener JSS (380 ppm) with Steviol Glycoside Additive (human sense of taste [2]): N (N: no difference in presence or absence of steviol glycoside additive;)
Taste change of Stevia Sweetener REBD (303 ppm) with Steviol Glycoside Additive (human sense of taste [2]): N (N: no difference in presence or absence of steviol glycoside additive;)

rebaudioside C
Sweetness recognition threshold Level (human sense of taste [1]): 100 ppm
Taste change of Stevia Sweetener REBA (303 ppm) with Steviol Glycoside Additive (human sense of taste [2]): N (N: no difference in presence or absence of steviol glycoside additive;)
Taste change of Stevia Sweetener JSS (380 ppm) with Steviol Glycoside Additive (human sense of taste [2]): N (N: no difference in presence or absence of steviol glycoside additive;)
Taste change of Stevia Sweetener REBD (303 ppm) with Steviol Glycoside Additive (human sense of taste [2]): N (N: no difference in presence or absence of steviol glycoside additive;)

CC1=C[C@@]23CC[C@H]4[C@@](C)(CCC[C@@]4(C)C(=O)O)[C@@H]2CC[C@]1(OC1OC(CO)C(O)C(OC2OC(CO)C(O)C(O)C2O)C1OC1OC(CO)C(O)C(O)C1O)C3 (stereo partly shown) [Compound 2]
minimal effective concentration (human sense of taste [1]): 35 µg/mL
Taste change of Stevia Sweetener REBA (303 ppm) with Steviol Glycoside Additive (human sense of taste [2]): ++, −SL, −B
Taste change of Stevia Sweetener JSS (380 ppm) with Steviol Glycoside Additive (human sense of taste [2]): DB (DB: Different pattern of bitterness;)
Taste change of Stevia Sweetener REBD (303 ppm) with Steviol Glycoside Additive (human sense of taste [2]): N(+), W
sugar-like taste quality enhancement effect (human sense of taste [2]): similar, but smaller positive sugar-like taste quality enhancement effect

CC1=C[C@@]23CC[C@H]4[C@@](C)(CCC[C@@]4(C)C(=O)OC4OC(CO)C(O)C(O)C4O)[C@@H]2CC[C@]1(OC1OC(CO)C(O)C(OC2OC(CO)C(O)C(O)C2O)C1OC1OC(CO)C(O)C(O)C1O)C3 (stereo partly shown) [Compound 4]
minimal effective concentration (human sense of taste [1]): 25 µg/mL
Taste change of Stevia Sweetener REBA (303 ppm) with Steviol Glycoside Additive (human sense of taste [2]): N (N: no difference in presence or absence of steviol glycoside additive;)
Taste change of Stevia Sweetener JSS (380 ppm) with Steviol Glycoside Additive (human sense of taste [2]): N (N: no difference in presence or absence of steviol glycoside additive;)
Taste change of Stevia Sweetener REBD (303 ppm) with Steviol Glycoside Additive (human sense of taste [2]): N (N: no difference in presence or absence of steviol glycoside additive;)
